What all share (assay type): cell-based
The target in one experiment is T1, MAP3K4 (Homo sapiens, UniProt Q9Y6R4).
T1 construct: host or cells: HEK293
Particulars: live cell, K10 tracer.

Another experiment deals with T2, PLK3 (Homo sapiens, UniProt Q9H4B4).
T2 construct: host or cells: HEK293
Particulars: live cell, K10 tracer.

A further experiment addresses T3, human PLK1 (NLuc-PLK1) (Homo sapiens, UniProt P53350).
T3 construct: plasmid DNAs encoding N- and C-terminal fusions of full-length PLK1 with NLuc; host or cells: HEK293
Description: PLK1 NanoBRET target engagement assay (NLuc-PLK1, N-terminal fusion) in live HEK293 cells. The conditions noted are these: probe 11; at least three technical replicates; read-out: PLK1 NanoBRET IC50 (dose response, Figure 3a). The procedure: HEK293 cells (ATCC) were cultured in DMEM (Gibco) + 10% FBS (Seradigm) with incubation in a humidified 37 °C/5% CO2 incubator. N- or C-terminal NLuc/PLK fusions were encoded in pFN31K expression vectors (Promega), including flexible Gly-Ser-Ser-Gly linkers between NLuc and ORFs corresponding to UniProt isoform 1 (PLK1: P53350-1, PLK2: Q9NYY3-1, and PLK3: Q9H4B4-1). Carrier DNA was encoded in pGEM-3Z vectors (Promega). For cellular BRET target engagement experiments, HEK293 cells were transfected with NLuc/PLK fusion constructs using FuGENE HD (Promega) according to the manufacturer’s protocol. […] One part (vol) of FuGENE HD complexes thus formed was combined with 20 parts (vol) of HEK293 cells suspended at a density of 2 × 10^5 per mL, followed by incubation in a humidified 37 °C/5% CO2 incubator for 20 hr.
To test BRET probes 10 and 11 against PLK1, HEK293 adherent cells were incubated with either NLuc fused to the N-terminus of PLK1 (NLuc-PLK1) or the C-terminus of PLK1 (PLK1-NLuc) using 1 µM of the BRET probe, and mBRET units were measured. […] NLuc-PLK2 and NLuc-PLK3 were tested with both probes 10 and 11 using the same protocol.
To estimate the half-maximal effective concentration (EC50) of probe 11 to PLK1 in cells, adherent HEK293 cells in a 96-well plate expressing the NLuc-PLK1 fusion protein were mixed with an increasing concentration of BRET probe 11. The resulting BRET ratio was fitted to the sigmoidal 4-parameter dose–response curve using Prism 9.0 (GraphPad, Boston MA, USA).

A further experiment concerns the target T4, WEE2 (Homo sapiens, UniProt P0C1S8).
T4 construct: host or cells: HEK293
The conditions noted are these: live cell, K10 tracer.

Another experiment has as its target T5, WEE1 (Homo sapiens, UniProt P30291).
T5 construct: host or cells: HEK293
The conditions noted are these: live cell, K10 tracer.

For the next experiment, the target named is T6, TNNI3K (Homo sapiens, UniProt Q59H18).
T6 construct: host or cells: HEK293
T6 sequence (Q59H18 1-835): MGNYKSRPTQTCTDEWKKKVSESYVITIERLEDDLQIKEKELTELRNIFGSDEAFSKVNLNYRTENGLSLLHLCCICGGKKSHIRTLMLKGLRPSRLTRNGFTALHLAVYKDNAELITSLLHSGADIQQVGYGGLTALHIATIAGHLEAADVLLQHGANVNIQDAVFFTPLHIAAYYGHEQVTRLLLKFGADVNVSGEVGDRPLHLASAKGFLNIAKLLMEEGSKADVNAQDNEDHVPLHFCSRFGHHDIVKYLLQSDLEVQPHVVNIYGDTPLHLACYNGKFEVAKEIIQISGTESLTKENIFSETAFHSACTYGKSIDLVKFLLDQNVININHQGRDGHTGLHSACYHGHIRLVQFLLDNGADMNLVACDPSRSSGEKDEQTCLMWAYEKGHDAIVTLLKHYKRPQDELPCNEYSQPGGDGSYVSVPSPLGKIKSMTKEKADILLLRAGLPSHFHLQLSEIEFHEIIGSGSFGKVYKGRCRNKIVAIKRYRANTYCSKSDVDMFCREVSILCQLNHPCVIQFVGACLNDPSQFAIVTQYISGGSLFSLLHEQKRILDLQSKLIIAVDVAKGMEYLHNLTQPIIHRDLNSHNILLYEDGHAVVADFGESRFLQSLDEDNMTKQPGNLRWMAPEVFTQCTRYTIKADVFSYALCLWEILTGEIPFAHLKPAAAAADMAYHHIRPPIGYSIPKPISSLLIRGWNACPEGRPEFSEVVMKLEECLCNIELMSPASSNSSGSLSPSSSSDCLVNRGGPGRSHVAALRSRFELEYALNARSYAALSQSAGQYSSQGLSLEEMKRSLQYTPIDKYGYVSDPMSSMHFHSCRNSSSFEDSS
The conditions noted are these: live cell, K10 tracer.

In another experiment the target is T7, PLK2 (Homo sapiens, UniProt Q9NYY3).
T7 construct: host or cells: HEK293
T7 sequence (Q9NYY3 whole entry): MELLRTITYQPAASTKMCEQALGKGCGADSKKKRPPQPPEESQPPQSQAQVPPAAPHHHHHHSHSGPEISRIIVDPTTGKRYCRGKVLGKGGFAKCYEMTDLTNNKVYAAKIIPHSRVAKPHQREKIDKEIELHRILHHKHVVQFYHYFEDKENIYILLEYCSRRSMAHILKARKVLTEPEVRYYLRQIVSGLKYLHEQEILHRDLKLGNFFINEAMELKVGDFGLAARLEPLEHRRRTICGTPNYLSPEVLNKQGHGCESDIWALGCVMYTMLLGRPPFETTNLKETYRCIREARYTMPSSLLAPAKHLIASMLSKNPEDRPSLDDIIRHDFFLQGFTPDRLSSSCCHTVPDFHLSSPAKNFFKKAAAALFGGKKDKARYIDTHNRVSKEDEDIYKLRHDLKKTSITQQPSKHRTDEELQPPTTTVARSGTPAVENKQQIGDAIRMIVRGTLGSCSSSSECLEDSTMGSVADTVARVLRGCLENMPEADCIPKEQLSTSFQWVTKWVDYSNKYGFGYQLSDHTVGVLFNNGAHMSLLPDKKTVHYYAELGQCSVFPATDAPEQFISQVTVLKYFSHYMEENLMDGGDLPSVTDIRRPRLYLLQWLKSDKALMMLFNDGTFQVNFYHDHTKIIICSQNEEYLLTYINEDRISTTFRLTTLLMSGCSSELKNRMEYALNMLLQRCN
Particulars: live cell, K10 tracer.

A further experiment addresses T8, GAK (Homo sapiens, UniProt O14976).
T8 construct: host or cells: HEK293
T8 sequence (O14976 1-1311): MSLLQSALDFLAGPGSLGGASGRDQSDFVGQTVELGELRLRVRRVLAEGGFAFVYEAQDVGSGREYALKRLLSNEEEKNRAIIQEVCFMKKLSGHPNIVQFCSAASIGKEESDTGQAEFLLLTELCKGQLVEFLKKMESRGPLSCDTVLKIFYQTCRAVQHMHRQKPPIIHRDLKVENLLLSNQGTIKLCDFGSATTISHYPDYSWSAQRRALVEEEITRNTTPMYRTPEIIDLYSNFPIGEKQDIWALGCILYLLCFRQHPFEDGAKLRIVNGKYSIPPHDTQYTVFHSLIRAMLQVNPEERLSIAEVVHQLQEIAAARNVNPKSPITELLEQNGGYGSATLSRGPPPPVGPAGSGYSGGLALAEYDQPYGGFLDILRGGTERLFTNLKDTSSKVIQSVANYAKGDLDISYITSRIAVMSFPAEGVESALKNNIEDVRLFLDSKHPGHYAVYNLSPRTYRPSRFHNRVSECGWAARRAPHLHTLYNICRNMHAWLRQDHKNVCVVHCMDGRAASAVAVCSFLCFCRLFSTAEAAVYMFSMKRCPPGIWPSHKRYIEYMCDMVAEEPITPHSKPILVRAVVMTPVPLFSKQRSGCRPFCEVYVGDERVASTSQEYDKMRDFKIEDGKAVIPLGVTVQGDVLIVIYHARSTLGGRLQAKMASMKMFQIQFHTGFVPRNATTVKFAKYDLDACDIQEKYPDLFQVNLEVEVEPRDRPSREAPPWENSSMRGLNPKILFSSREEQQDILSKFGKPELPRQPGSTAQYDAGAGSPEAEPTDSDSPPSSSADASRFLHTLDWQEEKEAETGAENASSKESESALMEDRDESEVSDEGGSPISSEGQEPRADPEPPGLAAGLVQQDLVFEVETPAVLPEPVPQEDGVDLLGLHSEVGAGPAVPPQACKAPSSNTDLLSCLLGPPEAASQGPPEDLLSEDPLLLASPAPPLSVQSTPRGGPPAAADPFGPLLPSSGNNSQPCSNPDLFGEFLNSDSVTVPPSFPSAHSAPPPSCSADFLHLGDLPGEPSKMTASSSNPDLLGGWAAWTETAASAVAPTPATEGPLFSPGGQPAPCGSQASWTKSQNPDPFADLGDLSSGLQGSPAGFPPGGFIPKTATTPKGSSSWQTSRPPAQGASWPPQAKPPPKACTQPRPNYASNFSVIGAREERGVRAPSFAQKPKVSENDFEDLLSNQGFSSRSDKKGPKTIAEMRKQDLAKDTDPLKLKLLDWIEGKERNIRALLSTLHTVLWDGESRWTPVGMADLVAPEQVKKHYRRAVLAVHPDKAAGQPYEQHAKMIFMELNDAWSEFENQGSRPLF
The conditions noted are these: live cell, K10 tracer.

pIC50: −log10 of the molar value. A value given as a limit tells only on which side of the number the result lay.

T5 sequence (P30291 whole entry): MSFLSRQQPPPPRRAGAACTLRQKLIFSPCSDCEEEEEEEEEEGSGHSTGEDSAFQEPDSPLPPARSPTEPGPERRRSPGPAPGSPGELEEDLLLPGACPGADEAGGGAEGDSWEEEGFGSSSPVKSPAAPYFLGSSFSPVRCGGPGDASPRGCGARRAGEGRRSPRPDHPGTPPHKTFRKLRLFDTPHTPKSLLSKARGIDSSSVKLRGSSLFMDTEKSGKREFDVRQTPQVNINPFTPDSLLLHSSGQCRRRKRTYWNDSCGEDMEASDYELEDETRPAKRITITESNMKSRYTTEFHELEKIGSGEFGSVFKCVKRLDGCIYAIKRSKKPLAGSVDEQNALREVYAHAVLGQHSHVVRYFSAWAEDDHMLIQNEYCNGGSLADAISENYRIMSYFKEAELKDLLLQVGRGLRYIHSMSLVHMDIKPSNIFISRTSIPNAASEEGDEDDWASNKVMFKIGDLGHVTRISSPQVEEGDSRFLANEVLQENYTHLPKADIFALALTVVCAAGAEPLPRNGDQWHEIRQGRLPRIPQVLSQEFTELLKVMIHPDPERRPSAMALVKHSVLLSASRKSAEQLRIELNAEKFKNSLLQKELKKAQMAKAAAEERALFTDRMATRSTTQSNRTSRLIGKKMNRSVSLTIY
T3 sequence (P53350 whole entry, the tested form may be a part): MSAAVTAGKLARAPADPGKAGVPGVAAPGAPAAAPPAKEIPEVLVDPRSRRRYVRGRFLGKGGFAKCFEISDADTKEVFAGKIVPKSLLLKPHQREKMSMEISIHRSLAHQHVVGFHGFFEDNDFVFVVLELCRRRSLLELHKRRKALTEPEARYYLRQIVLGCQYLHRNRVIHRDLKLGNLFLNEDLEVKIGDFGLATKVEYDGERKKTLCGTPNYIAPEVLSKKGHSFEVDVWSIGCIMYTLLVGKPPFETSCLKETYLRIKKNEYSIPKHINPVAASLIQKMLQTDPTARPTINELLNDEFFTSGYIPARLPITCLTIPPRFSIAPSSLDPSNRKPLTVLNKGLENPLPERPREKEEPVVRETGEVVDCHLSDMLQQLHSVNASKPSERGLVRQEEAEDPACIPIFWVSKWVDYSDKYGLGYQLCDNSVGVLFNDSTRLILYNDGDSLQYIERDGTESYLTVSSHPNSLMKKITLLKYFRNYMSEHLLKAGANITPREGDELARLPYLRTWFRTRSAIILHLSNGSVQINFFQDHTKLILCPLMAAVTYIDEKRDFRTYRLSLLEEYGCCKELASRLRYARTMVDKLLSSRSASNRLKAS
T1 sequence (Q9Y6R4 whole entry): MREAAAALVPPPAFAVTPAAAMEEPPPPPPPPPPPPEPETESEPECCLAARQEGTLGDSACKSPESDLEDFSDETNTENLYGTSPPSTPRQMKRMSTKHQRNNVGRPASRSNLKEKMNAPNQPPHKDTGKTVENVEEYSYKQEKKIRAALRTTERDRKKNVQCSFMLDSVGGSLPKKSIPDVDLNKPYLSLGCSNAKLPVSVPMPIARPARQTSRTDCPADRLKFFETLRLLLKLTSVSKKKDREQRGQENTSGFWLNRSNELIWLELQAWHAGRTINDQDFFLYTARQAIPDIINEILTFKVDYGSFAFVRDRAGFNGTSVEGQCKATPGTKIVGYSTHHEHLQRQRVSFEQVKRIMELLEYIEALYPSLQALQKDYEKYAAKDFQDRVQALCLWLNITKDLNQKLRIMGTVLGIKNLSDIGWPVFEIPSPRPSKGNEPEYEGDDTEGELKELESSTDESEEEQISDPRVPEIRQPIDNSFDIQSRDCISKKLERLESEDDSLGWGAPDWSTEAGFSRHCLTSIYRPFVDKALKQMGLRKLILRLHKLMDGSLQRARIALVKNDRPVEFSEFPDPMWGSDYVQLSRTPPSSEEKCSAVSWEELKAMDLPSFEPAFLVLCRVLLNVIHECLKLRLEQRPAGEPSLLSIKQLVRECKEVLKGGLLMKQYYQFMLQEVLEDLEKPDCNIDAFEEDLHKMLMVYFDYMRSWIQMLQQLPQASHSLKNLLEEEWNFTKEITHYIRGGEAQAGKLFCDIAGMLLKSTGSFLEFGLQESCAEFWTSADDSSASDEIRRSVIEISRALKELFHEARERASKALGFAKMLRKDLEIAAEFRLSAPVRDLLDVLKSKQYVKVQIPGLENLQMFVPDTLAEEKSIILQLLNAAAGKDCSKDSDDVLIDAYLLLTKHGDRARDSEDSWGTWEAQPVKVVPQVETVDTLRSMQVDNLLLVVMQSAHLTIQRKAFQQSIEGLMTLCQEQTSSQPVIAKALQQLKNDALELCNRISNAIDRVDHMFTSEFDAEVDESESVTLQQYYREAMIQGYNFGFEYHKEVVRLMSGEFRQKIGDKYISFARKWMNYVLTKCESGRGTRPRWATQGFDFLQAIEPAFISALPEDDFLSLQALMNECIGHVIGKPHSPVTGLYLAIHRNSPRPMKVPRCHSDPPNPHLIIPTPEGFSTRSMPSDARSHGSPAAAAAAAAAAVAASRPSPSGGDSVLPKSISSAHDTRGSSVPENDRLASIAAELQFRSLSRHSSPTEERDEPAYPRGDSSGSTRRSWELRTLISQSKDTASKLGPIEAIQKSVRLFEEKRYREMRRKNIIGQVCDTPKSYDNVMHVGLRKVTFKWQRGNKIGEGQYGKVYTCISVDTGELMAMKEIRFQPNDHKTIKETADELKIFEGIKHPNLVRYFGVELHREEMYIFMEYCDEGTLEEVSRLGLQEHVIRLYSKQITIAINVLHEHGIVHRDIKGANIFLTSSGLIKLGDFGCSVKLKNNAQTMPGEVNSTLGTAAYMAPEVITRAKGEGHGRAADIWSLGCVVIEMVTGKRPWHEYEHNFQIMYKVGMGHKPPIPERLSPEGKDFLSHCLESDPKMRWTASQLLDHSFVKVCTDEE
T2 sequence (Q9H4B4 whole entry): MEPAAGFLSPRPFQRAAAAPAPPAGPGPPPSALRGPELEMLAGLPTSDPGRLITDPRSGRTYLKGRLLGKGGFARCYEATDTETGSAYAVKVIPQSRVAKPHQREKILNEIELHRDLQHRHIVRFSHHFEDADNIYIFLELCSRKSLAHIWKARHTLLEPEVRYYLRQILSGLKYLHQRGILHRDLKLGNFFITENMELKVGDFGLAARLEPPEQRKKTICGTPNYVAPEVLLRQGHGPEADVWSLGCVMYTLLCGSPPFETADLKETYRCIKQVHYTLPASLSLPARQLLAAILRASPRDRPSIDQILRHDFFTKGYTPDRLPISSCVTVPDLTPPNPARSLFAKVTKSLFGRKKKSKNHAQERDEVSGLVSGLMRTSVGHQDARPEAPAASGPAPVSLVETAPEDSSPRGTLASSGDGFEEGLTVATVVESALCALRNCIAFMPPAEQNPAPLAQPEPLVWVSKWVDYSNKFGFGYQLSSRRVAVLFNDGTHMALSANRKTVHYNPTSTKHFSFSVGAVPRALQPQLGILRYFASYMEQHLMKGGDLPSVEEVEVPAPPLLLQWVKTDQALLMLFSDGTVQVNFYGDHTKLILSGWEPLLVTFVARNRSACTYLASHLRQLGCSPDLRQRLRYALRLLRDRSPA
T4 sequence (P0C1S8 whole entry): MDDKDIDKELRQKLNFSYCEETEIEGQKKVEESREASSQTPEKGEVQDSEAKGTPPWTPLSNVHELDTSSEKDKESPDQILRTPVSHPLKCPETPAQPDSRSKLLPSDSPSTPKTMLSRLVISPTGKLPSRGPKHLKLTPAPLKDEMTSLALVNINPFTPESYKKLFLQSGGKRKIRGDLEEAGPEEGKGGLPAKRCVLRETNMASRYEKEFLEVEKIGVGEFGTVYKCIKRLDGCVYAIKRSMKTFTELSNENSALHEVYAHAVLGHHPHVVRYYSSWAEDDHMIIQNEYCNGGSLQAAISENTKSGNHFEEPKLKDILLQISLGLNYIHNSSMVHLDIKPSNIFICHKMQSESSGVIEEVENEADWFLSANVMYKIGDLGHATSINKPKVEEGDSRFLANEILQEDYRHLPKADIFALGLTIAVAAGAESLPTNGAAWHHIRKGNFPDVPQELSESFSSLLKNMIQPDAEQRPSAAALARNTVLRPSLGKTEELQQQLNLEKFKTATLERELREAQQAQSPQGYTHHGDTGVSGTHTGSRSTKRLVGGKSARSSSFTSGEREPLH

Turning to `C=CCn1c(=O)c2cnc(Nc3ccc(N4CCN(C)CC4)cc3)nc2n1-c1cccc(C(C)(C)O)n1` [adavosertib], the receptor occupancy at 1 µM on MAP3K4 came out at 67%; at PLK3, 53%; on WEE2, 59%; on WEE1 it was 95%; at TNNI3K, 70%; on PLK2, 95%. This compound gave a receptor occupancy at 1 µM at GAK of 63%. Also, the pIC50 at human PLK1 (NLuc-PLK1) is less than 6.00.

Source of the values: paper PMC10095950, “Development of Cell Permeable NanoBRET Probes for the Measurement of PLK1 Target Engagement in Live Cells” (Molecules, 2023).
